This is an account of results in patent publication US11225477B2, “Inhibitors of influenza virus replication, application methods and uses thereof” (SUNSHINE LAKE PHARMA CO., LTD., priority 2015, dated 2022).

In data set [1] the test system is virus H1N1 A/Weiss/43. Briefly: microbe, parasite or virus in culture. It counts as cell-based. The conditions noted are these: Influenza A virus, 120 h; MDCK cells, H1N1 A/Weiss/43, Scheme 1: 8 concentrations 100 μM to 0.05 μM, 5 days, CCK-8.
For data set [2] the following is noted: SD, rat, in vivo; for F: po, 5 mg/kg.
Experimental: (§1) The compounds disclosed herein were administered in form of a saline solution containing 5% DMSO, 5% Kolliphor HS 15 and 90% Saline. […] Plasma samples were collected and stored at −20° C. or −70° C. until LC/MS/MS analysis.
Data set [3] can be described thus: in vivo. The conditions noted are these: SD, rat.
Experimental: as §1
The subject of data set [4] is virus H1N1 A/Weiss/43. Kind of data set: microbe, parasite or virus in culture. The following applies: Influenza A virus, 120 h; MDCK cells, H1N1 A/Weiss/43, Scheme 2: 8 concentrations 50 nM to 0.023 nM, 5 days, CCK-8. It counts as cell-based.

With `COc1ccc(-c2cc(NC3C4CCC(CC4)C3C(=O)O)nc(-c3c[nH]c4ncc(F)cc34)n2)cc1` (racemic) [Example 3, (+/−)-trans-3-((2-(5-fluoro-1H-pyrrolo[2,3-b]pyridin-3-yl)-6-(4-methoxyphenyl)pyrimidin-4-yl)amino)bicyclo[2.2.2]octane-2-carboxylic Acid], in data set [1], the concentration for a half-maximal effect (EC50) is less than 50 nM.

With `O=C(O)C1C2CCC(CC2)C1Nc1cc(-c2ccc(F)cc2)nc(-c2c[nH]c3ncc(F)cc23)n1` (racemic) [Example 6, (+/−)-trans-3-((2-(5-fluoro-1H-pyrrolo[2,3-b]pyridin-3-yl)-6-(4-fluorophenyl)pyrimidin-4-yl)amino)bicyclo[2.2.2]octane-2-carboxylic Acid], the EC50 in data set [1] was less than 50 nM.

As for `O=C(O)C1C2CCC(CC2)C1Nc1nc(-c2c[nH]c3ncc(F)cc23)nc2ccccc12` (racemic) [Example 1, (+/−)-trans-3-((2-(5-fluoro-1H-pyrrolo[2,3-b]pyridin-3-yl)quinazolin-4-yl)amino)bicyclo[2.2.2]octane-2-carboxylic Acid], the F in data set [2] is 42.1%. Also, in data set [3] (iv, 1 mg/kg), the AUC(0-inf) stood at 5020 ng·h/mL, the AUC(0-t) came to 4960 ng·h/mL, the Cmax worked out at 5900 ng/mL and the Tmax worked out at 4.98 min. In data set [3] (iv, 1 mg/kg), the Vd stood at 1.03 L/kg, the clearance is 3.42 mL/min/kg and the half-life was 67.8 min. Further, in data set [3] (po, 5 mg/kg), the AUC(0-inf) was found to be 10600 ng·h/mL, the AUC(0-t) amounted to 10100 ng·h/mL, the concentration peaked (Cmax) at 3130 ng/mL and the Tmax amounted to 50 min. In data set [3] (po, 5 mg/kg), this compound gave a half-life of 88.8 min. The concentration giving a half-maximal response (EC50) in data set [1] was less than 50 nM.

In data set [4], `O=C(O)C1C2CCC(CC2)C1Nc1cc(-c2ccccc2)nc(-c2c[nH]c3ncc(F)cc23)n1` (racemic) [Example 4, (+/−)-trans-3-((2-(5-fluoro-1H-pyrrolo[2,3-b]pyridin-3-yl)-6-phenylpyrimidin-4-yl)amino)bicyclo[2.2.2]octane-2-carboxylic Acid] showed an EC50 of 0.2 nM. Also, in data set [2], the F stood at 56.4%. Further, in data set [3] (iv, 1 mg/kg), the AUC(0-inf) was 4610 ng·h/mL, the AUC(0-t) was determined as 4540 ng·h/mL, the Cmax turned out to be 5980 ng/mL and the Tmax stood at 4.98 min. In data set [3] (iv, 1 mg/kg), the Vd turned out to be 0.412 L/kg, the clearance turned out to be 3.66 mL/min/kg and the half-life was 163 min. Besides, in data set [3] (po, 5 mg/kg), the AUC(0-inf) was 12800 ng·h/mL, the AUC(0-t) was 12800 ng·h/mL, the highest level (Cmax) was 3480 ng/mL and the Tmax came out at 40 min. Also, the half-life in data set [3] (po, 5 mg/kg) was 178 min. Besides, the concentration giving a half-maximal response (EC50) in data set [1] was less than 50 nM.

In data set [4], `O=C(O)C1C2CCC(CC2)C1Nc1cc(-c2ccco2)nc(-c2c[nH]c3ncc(F)cc23)n1` (racemic) [Example 9, (+/−)-trans-3-((2-(5-fluoro-1H-pyrrolo[2,3-b]pyridin-3-yl)-6-(furan-2-yl)pyrimidin-4-yl)amino)bicyclo[2.2.2]octane-2-carboxylic Acid] returned an EC50 of 0.066 nM. Besides, in data set [2] (iv, 1 mg/kg), the CL was found to be 97.7 mL/min/kg. Also, in data set [2], the F is listed as 47.5%. Also, in data set [3] (iv, 1 mg/kg), the AUC(0-inf) turned out to be 7350 ng·h/mL, the AUC(0-t) was found to be 7260 ng·h/mL, the highest level (Cmax) was 10900 ng/mL and the Tmax amounted to 4.98 min. In data set [3] (iv, 1 mg/kg), the volume of distribution (Vd) was determined as 0.551 L/kg and the half-life is 91.2 min. For the same compound, in data set [3] (po, 5 mg/kg), the total exposure AUC(0-inf) turned out to be 17500 ng·h/mL, the AUC(0-t) was found to be 17400 ng·h/mL, the maximum concentration (Cmax) was determined as 5270 ng/mL and the Tmax came to 30 min. Besides, in data set [3] (po, 5 mg/kg), the half-life was 189 min.

In turn, `O=C(O)C1C2CCC(CC2)C1Nc1nc(-c2c[nH]c3ncc(F)cc23)nc2c1CCCC2` (racemic) [Example 2, (+/−)-trans-3-((2-(5-fluoro-1H-pyrrolo[2,3-b]pyridin-3-yl)-5,6,7,8-tetrahydroquinazolin-4-yl)amino)bicyclo[2.2.2]octane-2-carboxylic Acid] had a F in data set [2] of 47.1%. In data set [3] (iv, 1 mg/kg), the AUC(0-inf) was 3470 ng·h/mL, the AUC(0-t) stood at 3440 ng·h/mL, the highest level (Cmax) was 4910 ng/mL and the Tmax came out at 4.98 min. Further, in data set [3] (iv, 1 mg/kg), the Vd is 1.26 L/kg, the clearance was 4.9 mL/min/kg and the half-life is 63.6 min. In data set [3] (po, 5 mg/kg), the AUC(0-inf) worked out at 8180 ng·h/mL, the AUC(0-t) was 8080 ng·h/mL, the Cmax amounted to 4020 ng/mL and the Tmax turned out to be 25 min. In addition, the half-life in data set [3] (po, 5 mg/kg) is 79.8 min. In addition, the EC50 in data set [1] is less than 50 nM.

`Cn1ccc2c(NC3C4CCC(CC4)C3C(=O)O)nc(-c3c[nH]c4ncc(F)cc34)nc21` (racemic) [Example 65, (+/−)-trans-3-((2-(5-fluoro-1H-pyrrolo[2,3-b]pyridin-3-yl)-7-methyl-7H-pyrrolo[2,3-d]pyrimidin-4-yl)amino)bicyclo[2.2.2]octane-2-carboxylic Acid]: in data set [4], the EC50 was 0.66 nM. In data set [2], the F was determined as 44.9%. Further, in data set [3] (iv, 1 mg/kg), the AUC(0-inf) came to 5360 ng·h/mL, the AUC(0-t) was found to be 5340 ng·h/mL, the Cmax was 6830 ng/mL and the Tmax was determined as 4.98 min. Also, in data set [3] (iv, 1 mg/kg), the Vd worked out at 0.168 L/kg, the clearance is 3.13 mL/min/kg and the half-life was 57.9 min. Also, in data set [3] (po, 5 mg/kg), the AUC(0-inf) came to 12100 ng·h/mL, the exposure AUC(0-t) was found to be 12000 ng·h/mL, the peak level (Cmax) was 7940 ng/mL and the Tmax was determined as 25 min. For the same compound, the half-life in data set [3] (po, 5 mg/kg) is 68.4 min.

On to `O=C(O)C1C2CCC(CC2)C1Nc1cc(-c2cc3ccccc3s2)nc(-c2c[nH]c3ncc(F)cc23)n1` (racemic) [Example 17, (+/−)-trans-3-((6-(benzo[b]thiophen-2-yl)-2-(5-fluoro-1H-pyrrolo[2,3-b]pyridin-3-yl)pyrimidin-4-yl)amino)bicyclo[2.2.2]octane-2-carboxylic Acid], for which the EC50 in data set [4] came out at 0.54 nM. The compound further yielded a F in data set [2] of 66.4%. Also, in data set [3] (iv, 1 mg/kg), the AUC(0-inf) stood at 2520 ng·h/mL, the exposure AUC(0-t) is 2510 ng·h/mL, the Cmax is 4420 ng/mL and the Tmax stood at 4.98 min. In data set [3] (iv, 1 mg/kg), this compound had a Vd of 1.49 L/kg, a clearance of 6.62 mL/min/kg and a half-life of 67.2 min. In addition, in data set [3] (po, 5 mg/kg), the AUC(0-inf) stood at 8360 ng·h/mL, the AUC(0-t) is 8270 ng·h/mL, the peak level (Cmax) was 2660 ng/mL and the Tmax is 30 min. Moreover, the half-life in data set [3] (po, 5 mg/kg) is 54.7 min.
